Measurements taken from patent publication US10179153B2, “Probiotic and prebiotic compositions” (AQUILON CYL SOCIEDAD LIMITADA, priority 2014, dated 2019).
In brackets after ≈: the same amount, converted by molar mass.

Columns and labels:
AqSynRMH69 strain [1] = experiment: In vitro test of minimal inhibitory concentration (MIC) of antibiotics; type: cell-based, Lactobacillus reuteri; details: for MIC, LSM: LAB susceptibility test medium pH 6.7, unit assumed; for Category: MIC compared with EFSA cut-off
Method: The evaluated antibiotics may be the following: Ampicillin, Vancomicin, Gentamicin, Kanamycin, Streptomycin, Eritromycin, Clindamycin, Tetracyclin and Chloranphenicol. An in vitro test of minimal inhibitory concentration (MIC) aimed to evaluate antibiotic resistances was performed for the above strains (AqSynJ59 and […]69). The evaluated antibiotics were the following: Ampicillin, Vancomicin, Gentamicin, Kanamycin, Streptomycin, Clindamycin, Tetracyclin and Chloranphenicol. The microbiological cut-off values that were used for evaluating the antibiotic resistances of the strains of the present invention are the ones defined in the “Guidance on the assessment of bacterial susceptibility to antimicrobials of human and veterinary importance”, EFSA Panel on Additives and Products or Substances used in Animal Feed ([…]), European Food Safety Authority (EFSA), Parma, Italy.

AqSynJ59 strain [2] = experiment: as above; type: cell-based, Lactobacillus plantarum; details: for MIC, LSM: LAB susceptibility test medium pH 6.7, unit assumed; for Category: MIC compared with EFSA cut-off
Method: An in vitro test of minimal inhibitory concentration (MIC) aimed to evaluate antibiotic resistances was performed for the above strains (AqSynJ59 and […]69). […] The microbiological cut-off values that were used for evaluating the antibiotic resistances of the strains of the present invention are the ones defined in the “Guidance on the assessment of bacterial susceptibility to antimicrobials of human and veterinary importance”, EFSA Panel on Additives and Products or Substances used in Animal Feed ([…]), European Food Safety Authority (EFSA), Parma, Italy.

AqSynRMH69 strain [3] = details: cut-off used for AqSynRMH69 (Lactobacillus reuteri); cited from earlier work
AqSynJ59 strain [4] = details: cut-off used for AqSynJ59 (Lactobacillus plantarum); cited from earlier work

Row | Molecule | MIC, LSM (AqSynRMH69 strain [1]) | Category (AqSynRMH69 strain [1]) | MIC, LSM (AqSynJ59 strain [2]) | EFSA (2012) values (microbiological cut-off) (AqSynRMH69 strain [3]) | Category (AqSynJ59 strain [2]) | EFSA (2012) values (microbiological cut-off) (AqSynJ59 strain [4])
1 | CN[C@H](CC(C)C)C(=O)N[C@H]1C(=O)N[C@@H](CC(N)=O)C(=O)N[C@H]2C(=O)N[C@H]3C(=O)N[C@H](C(=O)N[C@H](C(=O)O)c4cc(O)cc(O)c4-c4cc3ccc4O)[C@H](O)c3ccc(c(Cl)c3)Oc3cc2cc(c3O[C@@H]2O[C@H](CO)[C@@H](O)[C@H](O)[C@H]2O[C@H]2C[C@](C)(N)[C@H](O)[C@H](C)O2)Oc2ccc(cc2Cl)[C@H]1O [Vancomycin] | 512 µg/mL (≈ 353 µM) | R | 512 µg/mL (≈ 353 µM) | – | – | –
2 | [H]/N=C(/N)N[C@H]1[C@H](O)[C@@H](O)[C@H](O[C@@H]2O[C@@H](C)[C@](O)(C=O)[C@H]2O[C@@H]2O[C@@H](CO)[C@H](O)[C@@H](O)[C@@H]2NC)[C@@H](N/C(N)=N\[H])[C@@H]1O [Streptomycin] | 32 µg/mL (≈ 55 µM) | S | 32 µg/mL (≈ 55 µM) | 64 | – | –
3 | CCC[C@@H]1C[C@@H](C(=O)N[C@@H]([C@H]2O[C@H](SC)[C@H](O)[C@@H](O)[C@H]2O)[C@H](C)Cl)N(C)C1 [Clindamycin] | 0.125 µg/mL (≈ 0.294 µM) | S | 0.125 µg/mL (≈ 0.294 µM) | – | S | –
4 | CN(C)[C@@H]1C(O)=C(C(N)=O)C(=O)[C@@]2(O)C(O)=C3C(=O)c4c(O)cccc4[C@@](C)(O)[C@H]3C[C@@H]12 [Tetracycline] | 4 µg/mL (≈ 9 µM) | S | 4 µg/mL (≈ 9 µM) | – | S | –
5 | Gentamicin | 2 µg/mL | S | 1 µg/mL | 8 | S | 16
6 | CC1(C)S[C@@H]2[C@H](NC(=O)[C@H](N)c3ccccc3)C(=O)N2[C@H]1C(=O)O [Ampicillin] | 0.25 µg/mL (≈ 0.715 µM) | S | – | 2 | – | 2
7 | O=C(N[C@H](CO)[C@H](O)c1ccc([N+](=O)[O-])cc1)C(Cl)Cl [Chloramphenicol] | 2 µg/mL (≈ 6.19 µM) | S | 2 µg/mL (≈ 6.19 µM) | 4 | S | 8
8 | NC[C@H]1O[C@H](O[C@H]2[C@H](O)[C@@H](O[C@H]3O[C@H](CO)[C@@H](O)[C@H](N)[C@H]3O)[C@H](N)C[C@@H]2N)[C@H](O)[C@@H](O)[C@@H]1O [Kanamycin] | 64 µg/mL (≈ 132 µM) | S | 64 µg/mL (≈ 132 µM) | – | S | –
